US9708314B2, “Heterocyclic amide compound” (NISSAN CHEMICAL INDUSTRIES, LTD., priority 2013, dated 2017)

Key:
Format in all cases: in vivo
Scirpus juncoides = experiment: Test Example 1: herbicidal activity, application before weed generation in submerged conditions; details: Seventeenth Table; for B: Scirpus juncoides (herbicidal effect grade): Application herbicide amount 320 g/ha
Method in brief: (§1)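 Pre-emergence application to water surface of submerged pots (4 cm depth, alluvial soil) on sowing day, with 2.5-leaf rice transplanted; emulsion diluted to g/ha rates. Grown in greenhouse at 25–30 °C; 0–5 herbicidal/crop-effect score after three weeks.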

Monochoria vaginalis = experiment: as above; details: Application herbicide amount 320 g/ha; Seventeenth Table
Method in brief: as §1

[1] = tested on: Echinochloa oryzacola Vasing.; experiment: as above; details: Seventeenth Table; for A: Echinochloa oryzicola Vasing. (herbicidal effect grade): Application herbicide amount 320 g/ha
Method in brief: as §1

Zea mays = experiment: Test Example 4: effect on crop by application to foliage (diluvial soil, plastic box)
Method in brief: (§2)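 Plants were grown in sterilized diluvial soil in a greenhouse at 25-30° C for 14 days, then sprayed on stems and leaves with water-diluted emulsion formulation at set rates in g/ha. Weed control and crop injury were scored 3 weeks after treatment on a 0-5 herbicidal-ratio scale, from 0 (≤5%) to 5 (≥90%).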

Triticum aestivum = experiment: as above; details: for effect on crop, e (Triticum aestivum): application to foliage
Method in brief: as §2

Brassica campestris L. = experiment: as above; details: for effect on crop, g (Brassica campestris L.): application to foliage
Method in brief: as §2

Glycine max = experiment: as above; details: for effect on crop, c (Glycine max): application to foliage
Method in brief: as §2

[2] = tested on: directly sowed Oryza sativa; experiment: as above; details: for effect on crop, d (directly sowed Oryza sativa): application to foliage
Method in brief: as §2

[3] = tested on: Beta vulgaris ssp. vulgaris; experiment: as above; details: for effect on crop, f (Beta vulgaris ssp. vulgaris): application to foliage
Method in brief: as §2

Lolium multiflorum Lam. = experiment: Test Example 4: herbicidal effect by application to foliage (diluvial soil, plastic box); details: for herbicidal effect, K (Lolium multiflorum Lam.): application to foliage
Method in brief: as §2

Alopecurus myosuroides = experiment: as above; details: for herbicidal effect, J (Alopecurus myosuroides): application to foliage
Method in brief: as §2

Avena fatua = experiment: as above; details: for herbicidal effect, I (Avena fatua): application to foliage
Method in brief: as §2

Stellaria media = experiment: as above; details: for herbicidal effect, P (Stellaria media): application to foliage
Method in brief: as §2

Chenopodium album = experiment: as above; details: for herbicidal effect, O (Chenopodium album): application to foliage
Method in brief: as §2

Digitaria ciliaris = experiment: as above; details: for herbicidal effect, F (Digitaria ciliaris): application to foliage
Method in brief: as §2

Setaria viridis = experiment: as above; details: for herbicidal effect, G (Setaria viridis): application to foliage
Method in brief: as §2

[4] = tested on: Echinochloa crus-galli var. crus-galli; experiment: as above; details: for herbicidal effect, H (Echinochloa crus-galli var. crus-galli): application to foliage
Method in brief: as §2

Abutilon theophrasti = experiment: as above; details: for herbicidal effect, M (Abutilon theophrasti): application to foliage
Method in brief: as §2

Amaranthus retroflexus = experiment: as above; details: for herbicidal effect, N (Amaranthus retroflexus): application to foliage
Method in brief: as §2

Apera spica-venti. = experiment: as above; details: for herbicidal effect, L (Apera spica-venti.): application to foliage
Method in brief: as §2

Veronica persica = experiment: as above; details: application to foliage, 256 g/ha
Method in brief: as §2

Galium spurium = experiment: as above; details: application to foliage
Method in brief: as §2

[5] = application herbicide amount 260 g/ha

## CSC(C)c1nnc2c(C(=O)Nc3nnnn3C)ccc(C(F)(F)F)n12 (stereo not shown) [2-052]
Scirpus juncoides
  B: Scirpus juncoides (herbicidal effect grade): 5 (Herbicidal ratio of 90% or more (almost completely withered))
Monochoria vaginalis
  C: Monochoria vaginalis (herbicidal effect grade): 5 (Herbicidal ratio of 90% or more (almost completely withered))
[1]
  A: Echinochloa oryzicola Vasing. (herbicidal effect grade): 5 (Herbicidal ratio of 90% or more (almost completely withered))
Zea mays; foliage application, 320 g/ha
  b (Zea mays) effect on crop grade: 5 (Herbicidal ratio of 90% or more (almost completely withered))
Triticum aestivum; foliage application, 320 g/ha
  e (Triticum aestivum) effect on crop grade: 5 (Herbicidal ratio of 90% or more (almost completely withered))
Brassica campestris L.; foliage application, 320 g/ha
  g (Brassica campestris L.) effect on crop grade: 5 (Herbicidal ratio of 90% or more (almost completely withered))
Glycine max; foliage application, 320 g/ha
  c (Glycine max) effect on crop grade: 4 (Herbicidal ratio of 70% or more and less than 90%)
[2]; foliage application, 320 g/ha
  d (directly sowed Oryza sativa) effect on crop grade: 5 (Herbicidal ratio of 90% or more (almost completely withered))
[3]; foliage application, 320 g/ha
  f (Beta vulgaris ssp. vulgaris) effect on crop grade: 5 (Herbicidal ratio of 90% or more (almost completely withered))
Lolium multiflorum Lam.; foliage application, 320 g/ha
  K (Lolium multiflorum Lam.) herbicidal effect grade: 5 (Herbicidal ratio of 90% or more (almost completely withered))
Alopecurus myosuroides; foliage application, 320 g/ha
  J (Alopecurus myosuroides) herbicidal effect grade: 5 (Herbicidal ratio of 90% or more (almost completely withered))
Avena fatua; foliage application, 320 g/ha
  I (Avena fatua) herbicidal effect grade: 5 (Herbicidal ratio of 90% or more (almost completely withered))
Stellaria media; foliage application, 320 g/ha
  P (Stellaria media) herbicidal effect grade: 5 (Herbicidal ratio of 90% or more (almost completely withered))
Chenopodium album; foliage application, 320 g/ha
  O (Chenopodium album) herbicidal effect grade: 5 (Herbicidal ratio of 90% or more (almost completely withered))
Digitaria ciliaris; foliage application, 320 g/ha
  F (Digitaria ciliaris) herbicidal effect grade: 5 (Herbicidal ratio of 90% or more (almost completely withered))
Setaria viridis; foliage application, 320 g/ha
  G (Setaria viridis) herbicidal effect grade: 5 (Herbicidal ratio of 90% or more (almost completely withered))
[4]; foliage application, 320 g/ha
  H (Echinochloa crus-galli var. crus-galli) herbicidal effect grade: 5 (Herbicidal ratio of 90% or more (almost completely withered))
Abutilon theophrasti; foliage application, 320 g/ha
  M (Abutilon theophrasti) herbicidal effect grade: 5 (Herbicidal ratio of 90% or more (almost completely withered))
Amaranthus retroflexus; foliage application, 320 g/ha
  N (Amaranthus retroflexus) herbicidal effect grade: 5 (Herbicidal ratio of 90% or more (almost completely withered))
Apera spica-venti.; foliage application, 320 g/ha
  L (Apera spica-venti.) herbicidal effect grade: 5 (Herbicidal ratio of 90% or more (almost completely withered))

## Cn1nnnc1NC(=O)c1ccc(C(F)(F)F)n2c(C=O)nnc12 [2-109]
Scirpus juncoides; [5]
  B (Scirpus juncoides) herbicidal ratio grade: 3 (Herbicidal ratio of 40% or more and less than 70%)
[1]; [5]
  A (Echinochloa oryzicola Vasing.) herbicidal ratio grade: 2 (Herbicidal ratio of 20% or more and less than 40%)
Zea mays; application to foliage, 256 g/ha
  effect on crop, b (Zea mays): 1 (Herbicidal ratio of 5% or more and less than 20%)
Triticum aestivum; 256 g/ha
  effect on crop, e (Triticum aestivum): 1 (Herbicidal ratio of 5% or more and less than 20%)
Brassica campestris L.; 256 g/ha
  effect on crop, g (Brassica campestris L.): 4 (Herbicidal ratio of 70% or more and less than 90%)
Glycine max; 256 g/ha
  effect on crop, c (Glycine max): 0 (Herbicidal ratio of 5% or less (almost no effect))
[2]; 256 g/ha
  effect on crop, d (directly sowed Oryza sativa): 4 (Herbicidal ratio of 70% or more and less than 90%)
[3]; 256 g/ha
  effect on crop, f (Beta vulgaris ssp. vulgaris): 5 (Herbicidal ratio of 90% or more (almost completely withered))
Lolium multiflorum Lam.; 256 g/ha
  herbicidal effect, K (Lolium multiflorum Lam.): 1 (Herbicidal ratio of 5% or more and less than 20%)
Alopecurus myosuroides; 256 g/ha
  herbicidal effect, J (Alopecurus myosuroides): 0 (Herbicidal ratio of 5% or less (almost no effect))
Veronica persica
  herbicidal effect, R (Veronica persica): 5 (Herbicidal ratio of 90% or more (almost completely withered))
Avena fatua; 256 g/ha
  herbicidal effect, I (Avena fatua): 1 (Herbicidal ratio of 5% or more and less than 20%)
Stellaria media; 256 g/ha
  herbicidal effect, P (Stellaria media): 5 (Herbicidal ratio of 90% or more (almost completely withered))
Galium spurium; 256 g/ha
  herbicidal effect, Q (Galium spurium): 3 (Herbicidal ratio of 40% or more and less than 70%)
Chenopodium album; 256 g/ha
  herbicidal effect, O (Chenopodium album): 5 (Herbicidal ratio of 90% or more (almost completely withered))
Digitaria ciliaris; 256 g/ha
  herbicidal effect, F (Digitaria ciliaris): 3 (Herbicidal ratio of 40% or more and less than 70%)
Setaria viridis; 256 g/ha
  herbicidal effect, G (Setaria viridis): 2 (Herbicidal ratio of 20% or more and less than 40%)
[4]; 256 g/ha
  herbicidal effect, H (Echinochloa crus-galli var. crus-galli): 4 (Herbicidal ratio of 70% or more and less than 90%)
Abutilon theophrasti; 256 g/ha
  herbicidal effect, M (Abutilon theophrasti): 5 (Herbicidal ratio of 90% or more (almost completely withered))
Amaranthus retroflexus; 256 g/ha
  herbicidal effect, N (Amaranthus retroflexus): 5 (Herbicidal ratio of 90% or more (almost completely withered))
Apera spica-venti.; 256 g/ha
  herbicidal effect, L (Apera spica-venti.): 0 (Herbicidal ratio of 5% or less (almost no effect))

## Cn1nnnc1NC(=O)c1ccc(C(F)(F)F)n2c(SCC(F)(F)F)nnc12 [2-087]
Scirpus juncoides
  B: Scirpus juncoides (herbicidal effect grade): 5 (Herbicidal ratio of 90% or more (almost completely withered))
Monochoria vaginalis
  C: Monochoria vaginalis (herbicidal effect grade): 4 (Herbicidal ratio of 70% or more and less than 90%)
[1]
  A: Echinochloa oryzicola Vasing. (herbicidal effect grade): 5 (Herbicidal ratio of 90% or more (almost completely withered))
Triticum aestivum; 320 g/ha
  effect on crop, e (Triticum aestivum): 2 (Herbicidal ratio of 20% or more and less than 40%)
Brassica campestris L.; 320 g/ha
  effect on crop, g (Brassica campestris L.): 3 (Herbicidal ratio of 40% or more and less than 70%)
Glycine max; 320 g/ha
  effect on crop, c (Glycine max): 0 (Herbicidal ratio of 5% or less (almost no effect))
[2]; 320 g/ha
  effect on crop, d (directly sowed Oryza sativa): 3 (Herbicidal ratio of 40% or more and less than 70%)
[3]; 320 g/ha
  effect on crop, f (Beta vulgaris ssp. vulgaris): 5 (Herbicidal ratio of 90% or more (almost completely withered))
Lolium multiflorum Lam.; 320 g/ha
  herbicidal effect, K (Lolium multiflorum Lam.): 3 (Herbicidal ratio of 40% or more and less than 70%)
Alopecurus myosuroides; 320 g/ha
  herbicidal effect, J (Alopecurus myosuroides): 3 (Herbicidal ratio of 40% or more and less than 70%)
Avena fatua; 320 g/ha
  herbicidal effect, I (Avena fatua): 4 (Herbicidal ratio of 70% or more and less than 90%)
Stellaria media; 320 g/ha
  herbicidal effect, P (Stellaria media): 5 (Herbicidal ratio of 90% or more (almost completely withered))
Galium spurium; 320 g/ha
  herbicidal effect, Q (Galium spurium): 3 (Herbicidal ratio of 40% or more and less than 70%)
Chenopodium album; 320 g/ha
  herbicidal effect, O (Chenopodium album): 5 (Herbicidal ratio of 90% or more (almost completely withered))
Digitaria ciliaris; 320 g/ha
  herbicidal effect, F (Digitaria ciliaris): 5 (Herbicidal ratio of 90% or more (almost completely withered))
Setaria viridis; 320 g/ha
  herbicidal effect, G (Setaria viridis): 4 (Herbicidal ratio of 70% or more and less than 90%)
[4]; 320 g/ha
  herbicidal effect, H (Echinochloa crus-galli var. crus-galli): 5 (Herbicidal ratio of 90% or more (almost completely withered))
Abutilon theophrasti; 320 g/ha
  herbicidal effect, M (Abutilon theophrasti): 5 (Herbicidal ratio of 90% or more (almost completely withered))
Amaranthus retroflexus; 320 g/ha
  herbicidal effect, N (Amaranthus retroflexus): 4 (Herbicidal ratio of 70% or more and less than 90%)
Apera spica-venti.; 320 g/ha
  herbicidal effect, L (Apera spica-venti.): 4 (Herbicidal ratio of 70% or more and less than 90%)
